BindingDB's records for doi:10.1111/cbdd.12497 (Shandong University, 2015)

Target: Reverse transcriptase protein (Human immunodeficiency virus 1, UniProt Q9WJQ1)
Assay: In vitro Anti-HIV RT Assay
From the text: The HIV-1 RTwt inhibition assay was implemented using the template/primer hybrid poly(A)9oligo(dT)15, digoxigenin- and biotin-labeled nucleotides, an antibody to digoxigenin which is conjugated to peroxidase (anti-DIG-POD), and the peroxidase substrate ABTS for quantifying the RT polymerase activity. The incorporation quantities of the digoxigenin- and biotin-labeled dUTP into DNA represented the activity of HIV-1 RT. The IC50 value corresponds to the concentration of the tested compound required to inhibit the incorporation of the labeled dUTP by 50%. The procedure for RT assay was performed as described in the kit (Roche) protocol

Q: `Cc1cc(C)cc(C(=O)c2cccnc2Oc2ccc(C#N)cc2)c1` [4-(3-(3,5-Dimethylbenzoyl)pyridin-2-yloxy)benzonitrile (6a1)] was tested. Which IC50 did it give?
A: 150 µM

Q: How did the IC50 turn out when `Cc1ccnc2c1NC(=O)c1cccnc1N2C1CC1` [BI-RG-587] was run?
A: 0.58 µM

Q: `Cc1cc(C#N)cc(C)c1Oc1nc(Nc2ccc(C#N)cc2)nc(N)c1Br` was tested. Which IC50 did it give?
A: 0.089 µM
